Assay results as given in PubChem BioAssay (NCI).
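Interpolation was linear, between the two tested concentrations surrounding the appropriate level; five concentrations were tested over 48 hours in 96-well plates. Abbreviation: GI50, concentration required for 50% inhibition of growth. TGI denotes the concentration required for complete inhibition of growth.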

Key:
Assay in all cases: NCI-60 cell line screen, 48 h
786-0 renal = system: 786-0 renal
A549 NSCLC = system: A549 NSCLC
HT29 colon = system: HT29 colon
IGROV1 ovarian = system: IGROV1 ovarian
DU-145 prostate = system: DU-145 prostate
SNB-75 CNS = system: SNB-75 CNS
SK-OV-3 ovarian = system: SK-OV-3 ovarian
SK-MEL-5 melanoma = system: SK-MEL-5 melanoma
NCI/ADR-RES ovarian = system: NCI/ADR-RES ovarian
LOX IMVI melanoma = system: LOX IMVI melanoma
RPMI-8226 leukemia = system: RPMI-8226 leukemia
SK-MEL-28 melanoma = system: SK-MEL-28 melanoma
NCI-H226 lung = system: NCI-H226 lung
SF-539 CNS = system: SF-539 CNS
BT-549 breast = system: BT-549 breast
OVCAR-5 ovarian = system: OVCAR-5 ovarian
SNB-19 CNS = system: SNB-19 CNS
EKVX NSCLC = system: EKVX NSCLC
CAKI-1 renal = system: CAKI-1 renal
HCT-15 colon = system: HCT-15 colon
ACHN renal = system: ACHN renal
M14 melanoma = system: M14 melanoma
UACC-62 melanoma = system: UACC-62 melanoma
HOP-92 NSCLC = system: HOP-92 NSCLC
MCF7 breast = system: MCF7 breast
UO-31 renal = system: UO-31 renal
NCI-H522 lung = system: NCI-H522 lung

In the case of `Oc1c(I)cc(I)cc1CNCCN(Cc1ccccn1)Cc1ccccn1`, the GI50 (786-0 renal) is reported as 1.44 µM, the TGI (786-0 renal) is reported as 2.75 µM and the GI50 (A549 NSCLC) is reported as 1.24 µM. It also gave a TGI (A549 NSCLC) of 2.91 µM, a GI50 (HT29 colon) of 2.3 µM and a TGI (HT29 colon) of 5.96 µM. It also gave a GI50 (IGROV1 ovarian) of 0.83 µM, a TGI (IGROV1 ovarian) of 2.98 µM and a GI50 (DU-145 prostate) of 1.07 µM. The TGI (DU-145 prostate) was 2.27 µM, the GI50 (SNB-75 CNS) was 0.544 µM and the TGI (SNB-75 CNS) was 2.06 µM. The GI50 (SK-OV-3 ovarian) was 1.21 µM, the TGI (SK-OV-3 ovarian) was 2.58 µM and the GI50 (SK-MEL-5 melanoma) was 1.15 µM. The TGI (SK-MEL-5 melanoma) was 2.45 µM, the GI50 (NCI/ADR-RES ovarian) was 1.8 µM and the TGI (NCI/ADR-RES ovarian) was 4.79 µM. For the same compound, the GI50 (LOX IMVI melanoma) was 1.14 µM, the TGI (LOX IMVI melanoma) was 2.45 µM and the GI50 (RPMI-8226 leukemia) was 1.66 µM. For the same compound, the TGI (RPMI-8226 leukemia) was 7.64 µM, the GI50 (SK-MEL-28 melanoma) was 1.41 µM and the TGI (SK-MEL-28 melanoma) was 3.64 µM. For the same compound, the GI50 (NCI-H226 lung) was 1.07 µM, the TGI (NCI-H226 lung) was 2.75 µM and the GI50 (SF-539 CNS) was 1.14 µM. The TGI (SF-539 CNS) was 2.42 µM, the GI50 (BT-549 breast) was 1.24 µM and the TGI (BT-549 breast) was 2.52 µM. The GI50 (OVCAR-5 ovarian) was 1.42 µM, the TGI (OVCAR-5 ovarian) was 4.18 µM and the GI50 (SNB-19 CNS) was 0.693 µM. For the same compound, the TGI (SNB-19 CNS) was 2.11 µM, the GI50 (EKVX NSCLC) was 0.911 µM and the TGI (EKVX NSCLC) was 2.11 µM. It also gave a GI50 (CAKI-1 renal) of 1.32 µM, a TGI (CAKI-1 renal) of 2.68 µM and a GI50 (HCT-15 colon) of 1.18 µM. The TGI (HCT-15 colon) was 4.17 µM, the GI50 (ACHN renal) was 1.13 µM and the TGI (ACHN renal) was 2.34 µM. For the same compound, the GI50 (M14 melanoma) was 1.45 µM, the TGI (M14 melanoma) was 3 µM and the GI50 (UACC-62 melanoma) was 1.49 µM. For the same compound, the TGI (UACC-62 melanoma) was 4.21 µM, the GI50 (HOP-92 NSCLC) was 1.54 µM and the TGI (HOP-92 NSCLC) was 3.07 µM. It also gave a GI50 (MCF7 breast) of 1.21 µM, a TGI (MCF7 breast) of 3.19 µM and a GI50 (UO-31 renal) of 0.779 µM. The TGI (UO-31 renal) was 2.07 µM, the GI50 (NCI-H522 lung) was 1.37 µM and the TGI (NCI-H522 lung) was 3.34 µM.
